The source made the active and inactive calls. The calls are words filed in the database; no cut-off is given here.

For data set [1], the system named is Brachiomonas submarina. Nature of the data set: Antimicrobial activity against […] at 5 ppm. Type of data set: functional, organism-based.
Another data set deals with Prorocentrum micans. The experiment in a line: Antimicrobial activity against Prorocentrum micans at 5 ppm. Type of data set: functional, organism-based.
Data set [2] has as its system Brachiomonas submarina. Nature of the data set: Antimicrobial activity against […] at 1 ppm. Type of data set: functional, organism-based.
The test system of data set [3] is Anagnostidinema amphibium. Nature of the data set: Antimicrobial activity against Oscillatoria amphibia at 5 ppm. Type of data set: functional, organism-based.
Data set [4] has as its system Anagnostidinema amphibium. The experiment in a line: Antimicrobial activity against Oscillatoria amphibia at 1 ppm. Type of data set: functional, organism-based.
Data set [5] concerns Ulva. Nature of the data set: Toxicity against Ulva conglobata at 50 ppm. Type of data set: organism-based. The settings on record: in vivo.
The test system of a further data set is Skeletonema costatum. The experiment in a line: Antimicrobial activity against Skeletonema costatum at 5 ppm. Type of data set: functional, organism-based.
In data set [6] the test system is Ulva. The experiment in a line: Antifouling activity against Ulva conglobata spores assessed as germination and attachment rate at 5 ppm. Type of data set: functional.
Data set [7] deals with Ulva. Nature of the data set: Antifouling activity against Ulva conglobata spores assessed as germination and attachment rate at 1 ppm. Type of data set: functional.

In the case of `CCCCCCCCCCCCCCC[C@@H](O)[C@@H](N)CO`, the outcome (with Brachiomonas submarina [1]; with Prorocentrum micans; in the data set on Brachiomonas submarina [2]; in data set [3]; in data set [4]) was Active.
For the compound `CCCCCCCCCCCCCCCCCCCCCC(=O)N[C@@H](CO)[C@H](O)/C=C/CCCCCCCCCCC(C)C`, the Activity result in the data set with Ulva [5] is on record as “Non-toxic”.
As for `CCCCCCCCCCCCC/C=C/[C@@H](O)[C@H](CO)NC(=O)CCCCCCC`, in the data set with Ulva [5], the Activity entry was “Non-toxic”.
Same read-out and setting: the entry for `CCCCCCCCCCCCC/C=C/[C@@H](O)[C@H](CO)NC(=O)CCCCC` is “Non-toxic”; for `CCCCCCCCCCCCC/C=C/[C@@H](O)[C@H](CO)NC(=O)CCCCCCCCCCCCCCC` it is “Non-toxic”; for `CCCCCCCCCCCCC/C=C/[C@@H](O)[C@H](CO)NC(C)=O` it is “Non-toxic”.
Consider `CCCCCCCCCCCCC/C=C/[C@@H](O)[C@H](CO)N(C)C`, for which the result (in the data set with Skeletonema costatum; with Brachiomonas submarina [1]; in the data set with Ulva [6]; in the data set with Prorocentrum micans; in [3]) was Active.
In the case of `CCCCCCCCCCCCC/C=C/[C@@H](O)[C@@H](N)CO` [SPHINGOSINE], the outcome (with Skeletonema costatum; in the data set with Brachiomonas submarina [1]; in the data set with Prorocentrum micans; in [3]) was Active. Also, the values for the Activity in the data set on Ulva [6] and in the data set on Ulva [7] were 0% and 15%, respectively.
